From article PMC11272598, “RG7774 (Vicasinabin), an orally bioavailable cannabinoid receptor 2 (CB2R) agonist, decreases retinal vascular permeability, leukocyte adhesion, and ocular inflammation in animal models” (Frontiers in Pharmacology, 2024) come the findings set out here.

The series relates to laser-induced CNV. Nature of the series: Laser-induced CNV in rats, fluorescein angiography lesion area. To be noted: CNV rat model, ED50 0.037 mg/kg. The format is in vivo, Brown Norway rats. As to the method: Male Brown Norway rats (Charles River, Sulzfeld, Germany) aged 9 weeks and weighing 200 g on arrival ([…] after 1 week) were housed in individually ventilated GR1800 cages (Tecniplast, Pontremoli, Italy) with a maximum density of n = 5 rats per cage with the same litter and sex. The room was kept at 20°C–24°C with 50%–60% humidity and a 12/12 h light-dark cycle with ad libitum access to standard diet and water.
RG7774 was formulated (w/w) in 0.1% hydroxyethyl cellulose, 1% polysorbate 80, 0.18% methylparaben, 0.02% propylparaben, and 0.21% citric acid monohydrate, adjusted to pH 6 using NaOH. Three studies with 20 rats each were performed. […] The wellbeing of the animals was monitored daily, and free access was granted to food and water. […] Body weight was continuously monitored, and oral doses of RG7774 were adjusted accordingly. […]
Rats were anesthetized 1 week after laser injury using fentanyl 0.005 mg/kg, medetomidine 0.15 mg/kg, and midazolam 2 mg/kg. […] Retinal vessels and neovascularization were visualized by switching to fluorescence mode.
Images taken by the Heidelberg Spectralis HRA system were manually analyzed for the degree of CNV within the lesion (fluorescent) area and the affected area (in mm^2) was calculated using the Heidelberg Eye Explorer imaging program (Heidelberg Spectralis HRA, Heidelberg Engineering, Heidelberg, Germany). […]

As to `Cn1nnnc1Cn1nnc2c(N3CC[C@H](O)C3)nc(C(C)(C)C)nc21` [RG7774, (S)-1-(5-tert-butyl-3-[(1-methyl-1H-tetrazol-5-yl)methyl]-3H-[1,2,3]triazolo[4,5-d]pyrimidin-7-yl)pyrrolidin-3-ol], the “maximum concentration of the free active epimer in plasma associated with the ED50” value amounted to 12.5 nM. In addition, the “average concentration of the free active epimer in plasma associated with the ED50” value (S/R-enantiomer ratio of 2 assumed) is recorded as 1.05 nM.
